Reference: US20260151403A1, “NEK7 DEGRADERS AND METHODS OF USE THEREOF” (Captor Therapeutics S.A., priority 2022, published 2026)

Legend:
[1] = tested on: IL-1β release (NLRP3 inflammasome activation); assay: NLRP3 inflammasome activation assay, IL-1β release (ELISA) in human PBMC-derived macrophages; format: cell-based; settings: 10 μM, 24 h pre-treatment, then LPS 3 h and nigericin 1 h
Description: (§1) Macrophages were differentiated from human PBMCs isolated from buffy coats from healthy donors.
(§2) Buffy coats were diluted 1:1 (v/v) with DPBS (Sigma-Aldrich) in falcon tubes. After reconstitution, suspension was carefully layered on Histopaque-1077 solution (Sigma-Aldrich) and centrifuged (760×g, RT, 20 min; Brakes Off). PBMCs were collected and washed with DPBS (3× at 350×g, RT, 8 min and 1× at 200×g, RT, 10 min; Brakes On). Subsequently, cells were resuspended in appropriate volume of RPMI 1640 medium (Gibco) supplemented with 10% of heat-inactivated FBS (Gibco) and 1% of Penicillin-Streptomycin Solution 100x (Biowest). Cell viability was measured using trypan blue solution (Sigma-Aldrich).
(§3) 10×10^6 of PBMCs per well were seeded on 6-well plates in complete medium supplemented with 10 ng/ml of M-CSF growth factor (R&D Systems). Differentiation was conducted for a week with medium replacement every 2-3 days. Differentiation of PBMCs into mature macrophages was confirmed by microscopic evaluation and FACS surface staining for the following markers: CD11b, CD14, CD16 (BD Pharmingen). Differentiated macrophages were subjected on NLRP3 inflammasome activation assay.
(§4) Human PBMC-derived macrophages were pre-treated for 24 h with exemplary compounds at the specific concentrations. Dilutions of tested compound were prepared in DMSO. Afterwards cells were primed with 1 μg/ml of LPS (Invivogen) for 3 h and NLRP3 inflammasomes were activated with 5 μM of nigericin solution (Invivogen) for 1 h. Supernatants were centrifuged and stored for ELISA assays and cell lysates were prepared for Western blotting analysis.
(§5) IL-1β and IL-18 level was quantified using ELISA assays (R&D Systems) according to the manufacturer's protocol. 96-well plates were coated overnight with appropriate capture antibodies. Plates were blocked and incubated at RT for a minimum of 1 h. Samples or standards were added and incubated for 2 h in RT. Next, biotinylated anti-human IL-1β or IL-18 detection antibodies were added for 2 h in RT. Strepatividin-HRP solution was added for 20 min of incubation. Subsequently, substrate solution was added for 20 min. Between each step washing procedure was performed. The reaction was stopped, and optical density was determined using CLARIOstar Multimode Plate reader set to 450 nm with wavelength correction set to 570 nm. The analysis was performed with GraphPad Prism Software and Excel spreadsheet.
(§6) To evaluate compound effect on inflammasome activation (measured as IL-1β and IL-18 release), human PBMC-derived macrophages were treated with individual compounds for 24 h prior to inflammasome activation. As shown in the Table 4 and in FIGS. 2A and 2B, after 24 h of pre-treatment with exemplary compounds, a dose-dependent decrease of cytokines level was noted.

[2] = tested on: IL-18 release (NLRP3 inflammasome activation); assay: NLRP3 inflammasome activation assay, IL-18 release (ELISA) in human PBMC-derived macrophages; format: cell-based; settings: 10 μM, 24 h pre-treatment, then LPS 3 h and nigericin 1 h
Description: as §1, §2, §3, §4, §5, §6

| Structure (SMILES) | Level of released IL-1β (% of DMSO control) [1] | Level of released IL-18 (% of DMSO control) [2] |
| --- | --- | --- |
| O=C1CCC(N2Cc3cc(-c4ccc(-c5ccccc5)cn4)ccc3C2=O)C(=O)N1 (stereo not shown) [4(2), 3-(1-oxo-5-(5-phenylpyridin-2-yl)isoindolin-2-yl)piperidine-2,6-dione] | D (Levels of released cytokines ≥ 75%) | B (Levels of released cytokines > 25% and ≤50%) |
| O=C1CCC(N2Cc3cc(C4CCCCN4)ccc3C2=O)C(=O)N1 (stereo not shown) [Compound 2, 3-(1-oxo-5-(piperidin-2-yl)isoindolin-2-yl)piperidine-2,6-dione] | B (Levels of released cytokines > 25% and ≤50%) | A (Levels of released cytokines ≤ 25%) |
| Cc1c(C2CCCCN2)ccc2c1CN(C1CCC(=O)NC1=O)C2=O (stereo not shown) [Compound 19, 3-(4-methyl-1-oxo-5-(piperidin-2-yl)isoindolin-2-yl)piperidine-2,6-dione] | C (Levels of released cytokines > 50% and <75%) | C (Levels of released cytokines > 50% and <75%) |
| CC1c2cc(C3CCCCN3)ccc2C(=O)N1C1CCC(=O)NC1=O (stereo not shown) [Compound 25, 3-(3-methyl-1-oxo-5-(piperidin-2-yl)isoindolin-2-yl)piperidine-2,6-dione] | A (Levels of released cytokines ≤ 25%) | A (Levels of released cytokines ≤ 25%) |
| CC1c2cc(C3CCCCO3)ccc2C(=O)N1C1CCC(=O)NC1=O (stereo not shown) [Compound 64, 3-(3-methyl-1-oxo-5-(tetrahydro-2H-pyran-2-yl)isoindolin-2-yl)piperidine-2,6-dione] | A (Levels of released cytokines ≤ 25%) | A (Levels of released cytokines ≤ 25%) |
